The source of these data is article PMC10377586 (Biomolecules, 2023).

The target in one assay is T1, rat D1 receptor (Rattus norvegicus, UniProt P18901).
T1 construct: source of native rat D1 receptor protein; from tissue; host or cells: rat striatum (methods) / rat brain cortical membranes
The assay can be described thus: Radioligand binding [3H]SCH23390, rat brain tissue. The note with it: for Ki: native rat D1 receptor, read-out: rD1 [3H]SCH23390 Ki ± SEM; for inhibition at 1 µM: read-out: rD1 [3H]SCH23390 % inhibition ± SEM at 1 µM. The protocol:
Rat brain cortical membranes were used as source of native rat D1 receptor protein, and human D2 receptor was recombinantly expressed in HEK293 cells.
Rat striatum tissue was thawed in 50 volumes of ice-cold 50 mM potassium phosphate buffer, pH 7.4, homogenized and centrifuged at 20,000× g for 20 min. The resulting pellet was resuspended in the same quantity of the buffer and centrifuged again for 20 min. Binding experiments were conducted in 96-well microplates in a total volume of 250 μL of appropriate buffers. Reaction mix included 50 μL solution of test compound, 50 μL of radioligand, and 150 μL of tissue suspension (3 mg/mL). [^3H]SCH23390 (spec. act. 81.9 Ci/mmol, PerkinElmer, NET 930) was used for labeling the D1-receptor. For measuring unspecific binding, cis(Z)flupentixol—5 μM was applied. Samples were incubated at 30 °C for 60 min. The incubation was terminated by rapid filtration over glass fiber filters GF/B using a Harvester (PerkinElmer, USA). The radioactivity was measured in MicroBeta TriLux 1450—liquid scintillation counter (PerkinElmer). Each compound was tested in a screening assay in duplicate at final concentrations of 1 µM. Results were expressed as a percent of inhibition of specific binding.

For a further assay, the target named is T2, human MAO-B (Homo sapiens, UniProt P27338).
T2 construct: purchased Sigma Aldrich M7441
T2 sequence (P27338 1-520): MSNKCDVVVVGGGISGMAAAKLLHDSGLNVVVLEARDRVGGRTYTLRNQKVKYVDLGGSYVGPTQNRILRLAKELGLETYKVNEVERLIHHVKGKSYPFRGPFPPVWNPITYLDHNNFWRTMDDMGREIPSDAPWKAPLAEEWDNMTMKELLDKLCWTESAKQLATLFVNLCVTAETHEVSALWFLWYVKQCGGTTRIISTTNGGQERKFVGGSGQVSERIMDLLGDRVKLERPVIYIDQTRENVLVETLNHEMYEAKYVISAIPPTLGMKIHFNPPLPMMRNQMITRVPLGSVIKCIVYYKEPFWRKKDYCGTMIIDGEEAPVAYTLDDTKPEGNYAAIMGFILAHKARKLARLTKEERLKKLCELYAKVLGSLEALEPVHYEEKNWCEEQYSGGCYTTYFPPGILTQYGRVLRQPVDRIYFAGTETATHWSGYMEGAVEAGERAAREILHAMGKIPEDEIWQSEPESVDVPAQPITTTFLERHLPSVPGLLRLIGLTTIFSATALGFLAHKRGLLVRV
As to the kind of experiment: Amplex Red monoamine oxidase assay, MAO-B. The class given is biochemical. Particulars: human recombinant MAO-B; read-out: MAO-B IC50 ± SEM.

For a further assay, the target named is T3, human A2B (hA2B) ARs (Homo sapiens, UniProt P29275).
T3 construct: expressed in transfected cells; host or cells: CHO cells (membranes)
T3 sequence (P29275 1-332): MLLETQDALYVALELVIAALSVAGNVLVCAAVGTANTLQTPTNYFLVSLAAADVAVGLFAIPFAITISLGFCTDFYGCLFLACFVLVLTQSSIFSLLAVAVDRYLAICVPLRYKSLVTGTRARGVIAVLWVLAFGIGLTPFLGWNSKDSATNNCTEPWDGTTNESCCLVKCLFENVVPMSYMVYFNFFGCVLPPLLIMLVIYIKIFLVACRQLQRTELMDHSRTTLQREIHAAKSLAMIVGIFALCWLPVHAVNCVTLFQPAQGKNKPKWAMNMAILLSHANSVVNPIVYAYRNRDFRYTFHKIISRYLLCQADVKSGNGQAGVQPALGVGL
As to the kind of experiment: Radioligand binding [3H]PSB-603, CHO cell membranes. Particulars: for Ki: CHO cell membranes, read-out: hA2B [3H]PSB-603 Ki ± SEM; for inhibition at 1 µM: read-out: hA2B [3H]PSB-603 % inhibition ± SEM at 1 µM. How it is done:
The final compounds were tested in radioligand binding assays to evaluate their affinity for all four ARs subtypes (see Table 2). Rat brain cortical membrane preparations were used as a source of rat A1 (rA1) ARs, and rat brain striatal membrane preparations served as a source of rat A2A (rA2A) ARs. For A2B- and A3AR assays, membrane preparations of Chinese hamster ovary (CHO) cells recombinantly expressing either human A2B (hA2B) or human A3 (hA3) ARs were employed.
Adenosine receptor radioligand binding assays were performed as previously described using rat brain cortical membrane preparations for A1 and rat brain striatal membrane preparations for A2A AR assays. Frozen rat brains (unstripped) were obtained from Pel Freez, Rogers, AR, USA. For assays at human AR subtypes, cell membranes of CHO cells recombinantly expressing the respective receptor were used. The following compounds were employed as radioligands: A1: [^3H]2-chloro-N^6-cyclopentyladenosine ([^3H]CCPA); A2A: [^3H]3-(3-hydroxypropyl)-7-methyl-8-(m-methoxystyryl)-1-propargylxanthine ([^3H]MSX-2); A2B: [^3H]8-(4-(4-(4-chlorophenyl)piperazine-1-sulfonyl)phenyl)-1-propylxanthine ([^3H]PSB-603); A3: [^3H]phenyl-8-ethyl-4-methyl-(8R)-4,5,7,8-tetrahydro-1H-imidazo[2,1-i]purine-5-one ([^3H]PSB-11). Initially, a single high concentration of compound was tested (1 µM). For potent compounds, full concentration–inhibition curves were determined using six to ten different concentrations of test compound spanning three orders of magnitude. At least three independent experiments were performed. Data were analyzed using GraphPad PRISM program version 4.0 or higher (Graph Pad, San Diego, CA, USA).

The next assay concerns the target T4, human PDE10A1 (Homo sapiens, UniProt Q9Y233).
T4 construct: purchased BPS Biosciences
As to the kind of experiment: PDElight HTS cAMP phosphodiesterase assay, PDE10A1. The class given is biochemical. The note with it: for IC50: read-out: PDE 10A1 IC50 ± SEM; for inhibition at 10 µM: read-out: PDE 10A1 % Inhibition ± SEM at 10 µM. The protocol:
Further biological evaluation of the presented compound library was performed determining inhibitory potencies against selected human PDE isoforms, namely, PDE4 and PDE10 (for results see Table 3).
Tested and reference compounds were dissolved in dimethyl sulfoxide (DMSO) at a concentration of 10 mM and further diluted in assay buffer (10 mM Tris-HCl, 10 mM magnesium chloride and 0.05% Tween-20; pH 7.4). Inhibition of human PDE10A and 4B1 was measured using PDElight HTS cAMP phosphodiesterase assay kit (Lonza, Basel, Switzerland) according to manufacturer’s recommendations. Then, 10 ng of PDE10A and 5 ng of PDE4B1 (BPS Biosciences, San Diego, CA, USA) in appropriate buffer was incubated with reference and tested compound for 20 min. […] Then PDELight AMP Detection Reagent was added and incubated 10 min. All reactions were carried out at 37 °C in 96 white-walled, half-area-well plates (PerkinElmer). Luminescence was measured in a multifunction plate reader (POLARstar Omega, BMG Labtech, Ortenberg, Germany). The percentage of inhibition and IC50s were computed using GraphPad Prism Version 6.0 software.

Structures are written as SMILES.

T4 sequence (Q9Y233 1-779 isoform Q9Y233-1): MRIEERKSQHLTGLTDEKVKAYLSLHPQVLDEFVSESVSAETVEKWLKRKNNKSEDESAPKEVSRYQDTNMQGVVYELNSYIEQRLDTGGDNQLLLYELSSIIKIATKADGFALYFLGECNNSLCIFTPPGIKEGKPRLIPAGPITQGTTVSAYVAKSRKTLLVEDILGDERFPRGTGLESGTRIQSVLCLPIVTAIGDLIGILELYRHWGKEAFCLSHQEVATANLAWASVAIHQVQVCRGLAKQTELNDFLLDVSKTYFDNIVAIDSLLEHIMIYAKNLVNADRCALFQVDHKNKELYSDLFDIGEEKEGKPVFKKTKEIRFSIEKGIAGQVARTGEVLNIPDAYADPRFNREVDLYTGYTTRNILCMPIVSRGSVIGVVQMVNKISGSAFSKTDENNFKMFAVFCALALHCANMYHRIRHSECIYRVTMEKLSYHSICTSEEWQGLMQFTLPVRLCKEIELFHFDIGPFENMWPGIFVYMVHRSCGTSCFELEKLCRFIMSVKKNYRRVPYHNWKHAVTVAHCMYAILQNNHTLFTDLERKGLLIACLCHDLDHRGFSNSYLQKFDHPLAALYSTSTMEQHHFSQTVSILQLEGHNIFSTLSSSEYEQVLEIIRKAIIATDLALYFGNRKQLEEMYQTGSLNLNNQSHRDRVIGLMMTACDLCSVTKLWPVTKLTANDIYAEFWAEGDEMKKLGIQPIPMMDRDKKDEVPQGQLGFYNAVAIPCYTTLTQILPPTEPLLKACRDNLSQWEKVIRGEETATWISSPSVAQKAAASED
T1 sequence (P18901 whole entry): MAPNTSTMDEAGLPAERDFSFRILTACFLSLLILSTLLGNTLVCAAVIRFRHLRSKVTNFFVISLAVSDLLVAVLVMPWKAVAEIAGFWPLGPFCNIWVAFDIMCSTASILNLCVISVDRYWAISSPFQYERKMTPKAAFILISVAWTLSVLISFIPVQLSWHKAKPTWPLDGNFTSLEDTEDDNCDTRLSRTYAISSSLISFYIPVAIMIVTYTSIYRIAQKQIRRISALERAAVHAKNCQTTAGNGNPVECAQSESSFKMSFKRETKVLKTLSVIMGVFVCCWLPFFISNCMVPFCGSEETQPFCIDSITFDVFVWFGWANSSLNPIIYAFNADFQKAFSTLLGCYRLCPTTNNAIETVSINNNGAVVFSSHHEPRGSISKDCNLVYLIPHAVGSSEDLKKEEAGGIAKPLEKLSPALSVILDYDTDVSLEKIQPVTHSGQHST
Method for human MAO-B: Inhibition activity of compounds at MAO enzyme isoforms was measured via a fluorometric method using the Amplex Red Monoamine Oxidase Assay (ThermoFisher Scientific, Waltham, MA, USA #A12214) in a 96-well plates. Human recombinant MAO-B and MAO-A enzymes (Sigma Aldrich, St. Louis, MO, USA #M7441 and #M7316) were used.

Broadly, the Ki is the dissociation constant of the complex between target and ligand, obtained from inhibition or displacement. As a reminder, the inhibition is the drop in the measured response relative to a control, in per cent. The IC50 is the concentration needed to halve the response being measured. For the compound `Cn1c(=O)c2c(nc(NCCc3ccc(O)c(O)c3)n2C)n(C)c1=O` [Compound 11a, 8-((3,4-Dihydroxyphenethyl)amino)-1,3,7-trimethyl-3,7-dihydro-1H-purine-2,6-dione], the Ki at rat D1 receptor and on human A2B (hA2B) ARs was over 1 µM throughout. Further, the inhibition at 1 µM on rat D1 receptor amounted to 13%; at human A2B (hA2B) ARs, 20%. Moreover, the IC50 was found to be 0.0507 ± 0.01 µM at human MAO-B and 15.1 ± 3.1 µM at human PDE10A1.
Turning to `CCn1c(NCCc2ccc(O)c(O)c2)nc2c1c(=O)n(C)c(=O)n2C` [Compound 11b, 8-((3,4-Dihydroxyphenethyl)amino)-7-ethyl-1,3-dimethyl-3,7-dihydro-1H-purine-2,6-dione], the Ki on rat D1 receptor and on human A2B (hA2B) ARs was over 1 µM each time. Besides, the inhibition at 1 µM on rat D1 receptor was 15%; on human A2B (hA2B) ARs, -2%. The IC50 on human MAO-B amounted to 0.0479 ± 0.0084 µM; on human PDE10A1, 4.63 ± 1.25 µM.
`CCCn1c(NCCc2ccc(O)c(O)c2)nc2c1c(=O)n(C)c(=O)n2C` [Compound 11c, 8-((3,4-Dihydroxyphenethyl)amino)-1,3-dimethyl-7-propyl-3,7-dihydro-1H-purine-2,6-dione]: the Ki on rat D1 receptor and on human A2B (hA2B) ARs was over 1 µM each time. Also, the inhibition at 1 µM turned out to be 9% on rat D1 receptor and 6% at human A2B (hA2B) ARs. The figures for the IC50 on human MAO-B and on human PDE10A1 were 0.165 ± 0.03 µM and 3.45 ± 0.27 µM, respectively.
Take `CC(C)n1c(NCCc2ccc(O)c(O)c2)nc2c1c(=O)n(C)c(=O)n2C` [Compound 11d, 8-((3,4-Dihydroxyphenethyl)amino)-7-isopropyl-1,3-dimethyl-3,7-dihydro-1H-purine-2,6-dione]: the inhibitory constant (Ki) at rat D1 receptor and at human A2B (hA2B) ARs was over 1 µM each time. In addition, the inhibition at 1 µM on rat D1 receptor is 15%; on human A2B (hA2B) ARs, 13%. The 50% inhibitory concentration (IC50) at human MAO-B stood at 0.126 ± 0.049 µM; at human PDE10A1, 2.3 ± 0.64 µM.
For `CCCCn1c(NCCc2ccc(O)c(O)c2)nc2c1c(=O)n(C)c(=O)n2C` [Compound 11e, 7-Butyl-8-((3,4-dihydroxyphenethyl)amino)-1,3-dimethyl-3,7-dihydro-1H-purine-2,6-dione], the inhibition constant (Ki) at rat D1 receptor and at human A2B (hA2B) ARs was over 1 µM in each case. The inhibition at 1 µM on rat D1 receptor amounted to 13%; at human A2B (hA2B) ARs, 14%. The IC50 at human MAO-B was determined as 0.0438 ± 0.0162 µM; on human PDE10A1, 3.77 ± 1.29 µM.
With `CC(C)Cn1c(NCCc2ccc(O)c(O)c2)nc2c1c(=O)n(C)c(=O)n2C` [Compound 11f, 8-((3,4-Dihydroxyphenethyl)amino)-7-isobutyl-1,3-dimethyl-3,7-dihydro-1H-purine-2,6-dione], the Ki on rat D1 receptor and on human A2B (hA2B) ARs was over 1 µM throughout. In addition, the inhibition at 1 µM at rat D1 receptor was found to be 15%; at human A2B (hA2B) ARs, 1%. Moreover, the IC50 on human MAO-B was determined as 0.205 ± 0.023 µM. Moreover, the inhibition at 10 µM at human PDE10A1 turned out to be 59%.
On to `CCC(C)n1c(NCCc2ccc(O)c(O)c2)nc2c1c(=O)n(C)c(=O)n2C` (stereo not drawn) [Compound 11g, 7-(Sec-butyl)-8-((3,4-dihydroxyphenethyl)amino)-1,3-dimethyl-3,7-dihydro-1H-purine-2,6-dione], for which the Ki on rat D1 receptor and at human A2B (hA2B) ARs was over 1 µM throughout. The figures for the inhibition at 1 µM on rat D1 receptor and at human A2B (hA2B) ARs were 11% and -5%, respectively. Further, the IC50 at human MAO-B is 0.197 ± 0.057 µM; at human PDE10A1, 10.2 ± 0.9 µM.
For `CCCCCn1c(NCCc2ccc(O)c(O)c2)nc2c1c(=O)n(C)c(=O)n2C` [Compound 11h, 8-((3,4-Dihydroxyphenethyl)amino)-1,3-dimethyl-7-pentyl-3,7-dihydro-1H-purine-2,6-dione], the Ki at rat D1 receptor and on human A2B (hA2B) ARs was over 1 µM in each case. The inhibition at 1 µM on rat D1 receptor and at human A2B (hA2B) ARs was 12% in each case. Moreover, the IC50 is 0.0583 ± 0.0062 µM at human MAO-B and at least 10 µM on human PDE10A1. Further, the inhibition at 10 µM at human PDE10A1 is 51%.
Take `CCCCCCn1c(NCCc2ccc(O)c(O)c2)nc2c1c(=O)n(C)c(=O)n2C` [Compound 11i, 8-((3,4-Dihydroxyphenethyl)amino)-7-hexyl-1,3-dimethyl-3,7-dihydro-1H-purine-2,6-dione]: on rat D1 receptor, the Ki was over 1 µM and the inhibition at 1 µM amounted to 9%. Also, the IC50 on human MAO-B came to 0.0764 ± 0.0007 µM. Also, on human A2B (hA2B) ARs, the inhibitory constant (Ki) is over 1 µM and the inhibition at 1 µM worked out at 31%. At human PDE10A1, the inhibition at 10 µM was 14% and the IC50 was over 10 µM.
As for `Cn1c(=O)c2c(nc(NCCc3ccc(O)c(O)c3)n2Cc2ccccc2)n(C)c1=O` [Compound 11j, 7-Benzyl-8-((3,4-dihydroxyphenethyl)amino)-1,3-dimethyl-3,7-dihydro-1H-purine-2,6-dione], on rat D1 receptor, the Ki was over 1 µM and the inhibition at 1 µM is 3%. Moreover, the IC50 at human MAO-B is 0.0456 ± 0.0129 µM. In addition, on human A2B (hA2B) ARs, the Ki was over 1 µM and the inhibition at 1 µM amounted to 31%. On human PDE10A1, the inhibition at 10 µM is 36% and the IC50 is at least 10 µM.
For `Cn1c(=O)c2c(nc(NCCc3ccc(O)c(O)c3)n2CCc2ccccc2)n(C)c1=O` [Compound 11k, 8-((3,4-Dihydroxyphenethyl)amino)-1,3-dimethyl-7-phenethyl-3,7-dihydro-1H-purine-2,6-dione], the Ki on rat D1 receptor and on human A2B (hA2B) ARs was over 1 µM throughout. Besides, the inhibition at 1 µM at rat D1 receptor is 6%; on human A2B (hA2B) ARs, -9%. The values for the IC50 on human MAO-B and on human PDE10A1 were 0.0735 ± 0.0075 µM and 2.41 ± 0.07 µM, respectively.
